From patent US20070253953A1, “Molecular Signature of the Pten Tumor Suppressor” (REGENTS OF THE UNIVERSITY OF CALIFORNIA, THE, priority 2003, published 2007)

Tests used:
[1] = tested on: IGFBP2; settings: patients treated (ref 28); cited from earlier work
[2] = tested on: LNCaP cells; experiment: Cell cycle analysis of LNCaP cells treated with PI3K inhibitor; format: cell-based
Source text: FIG. 5. IGFBP2 plays a functional role in the PI3K-Akt pathway. (A) Cell cycle analysis of vector or IGFBP2 infected LNCaP cells treated with PI3K inhibitor (LY294002). (B and C) Clonagenic assay on wild-type or IGFBP2 knockout mouse embryonic fibroblasts with or without constitutive-active Akt expression (B), or myc expression (C). To examine if IGFBP2 is involved in the PI3K signaling, a pharmacological approach was employed. Consistent with the result in FIG. 3B, LNCaP cells have a high basal level of Akt activation. […] To examine if IGFBP2 plays a biological role for Akt function, clonogenic assay was performed using IGFBP2 knockout MEF (23). While Akt promoted colony formation in IGFBP2 wild type MEF (FIG. 5B, top and left panel), deletion of IGFBP2 abrogated this promoting activity. The requirement of IGFBP2 is specific to Akt because c-myc promoted colony formation in both cells (FIG. 5C). The inability of Akt to promote colony formation in IGFBP2 knockout MEF can be rescued by re-introduction of IGFBP2 (FIG. 5B).

[3] = tested on: PTEN mutated tumors; settings: cited from earlier work

Compound: IGF-l: insulin-like growth factor 1, a stimulus for Akt activation
- level of IGFBP2 in serum [1]: elevated level

Compound: O=c1cc(N2CCOCC2)oc2c(-c3ccccc3)cccc12 [LY294002]
- decrease of the percentage of cells in S phase [2]: 40%

Compound: CO[C@H]1C[C@@H]2CC[C@@H](C)[C@@](O)(O2)C(=O)C(=O)N2CCCC[C@H]2C(=O)O[C@H]([C@H](C)C[C@@H]2CC[C@@H](OC(=O)C(C)(CO)CO)[C@H](OC)C2)CC(=O)[C@H](C)/C=C(\C)[C@@H](O)[C@@H](OC)C(=O)[C@H](C)C[C@H](C)/C=C/C=C/C=C/1C [CCI-779]
- inhibition of PTEN mutated cancer cells ([3]; PTEN mutated cancer cells): effectively inhibits
- sensitivity of tumors with PTEN mutations ([3]; tumors with PTEN mutations (refs 22, 27)): more sensitive
